# Earlier results in US20030152525A1, “Stable oral compositions comprising casein phosphopeptide complexes and fluoride” (The Procter & Gamble Company, priority 2002, published 2003).
# Conditions: solutions containing 0.1% w/v peptide, various pH, calcium and phosphate concentrations, constant ionic strength; as discussed in WO 98/40406
substance,measurement,value
Gln^59-Met-Glu-Ala-Glu-Ser(P)-Ile-Ser(P)-Ser(P)-Ser(P)-Glu-Glu-Ile-Val-Pro-Asn-Ser(P)-Val-Glu-Gln-Lys^79 [αs1 (59-79) [1]],calcium maximally bound per molecule of peptide,24 per molecule
same,phosphate maximally bound per molecule of peptide,16 per molecule
